Consider six substances from patent publication US4929718A, “Synthetic noxiustoxin related peptides” (Universidad Nacional Autonoma De Mexico, priority 1987, dated 1990).

Ends that are not written are not given here.

Data set [1] concerns BALB/c mice. The following applies: BALB/c mice immunized for two months, immunodiffusion against NTX 1-39 coupled to MSA, FIG. 3. The text has this:
A group of ten mice were immunized with each peptide and a second group of mice were immunized with each peptide coupled to mouse serum albumin as a carrier molecule.

In data set [2] the test system is potassium channel. Briefly: voltage-clamp study of potassium channel blockade in dorsal root ganglion cells. The following applies: concentrations of up to 100 micromolar, chick embryo dorsal root ganglion cells. In kind it is cell-based. The text has this: (§1) The mechanism of action of all synthetic peptides was verified by three independent essays: "in vivo" challenge by injection of albino mice (strain CD1) with different amounts of synthetic peptides; liberation of radioactive (tritiated) gamma-amino-butyric acid from mouse brain synaptosomes; and confirmation of the results with electrophysiological experiments, through voltage-clamp technique, in chick embryo dorsal root ganglion cells maintained in "in vitro" culture.

Data set [3] concerns mouse brain synaptosomes. The data set can be described thus: release of tritiated GABA from mouse brain synaptosomes. In kind it is cell-based. Conditions: for effect on GABA (neurotransmitter) release: mouse brain synaptosomes preloaded with 3H-GABA, FIG. 2.
From the text: as §1
In the experiments involving release of neurotransmitters, mouse brain synaptosomes were preloaded with radioactive gamma-amino-butyric acid (2, 3, 3H-GABA) and were placed in Millipore filters ([…]) in perfusion chambers, each one containing 0.2 to 0.3 mg. of synaptosomal protein. The fractions from the perfusate (0.5 ml. each) were collected by means of a peristaltic pump at one minute intervals. After 6 minutes, a solution containing synthetic polypeptides was added to the experimental chambers and the radioactivity release was counted in an apparatus for measuring radioisotopes. […] The liberation of GABA per minute is expressed as a percentage of the total radioactivity present in the synaptosomes at the beginning of the experiment.

Data set [4] deals with albino mice (strain CD1). Briefly: "in vivo" challenge / lethality tests of synthetic peptides by injection of mice. The following applies: for lethality test outcome: mouse, in vivo.
Data set [5] relates to mice challenged with Noxiustoxin. Conditions: challenge with effective lethal dose of Noxiustoxin (150 g per mouse).
Where [6] appears, read: dose 200 g (so in the source), intraventricularly.

With “Methionine-Asparagine-Glycine-Lysine-Cysteine-Lysine-Cysteine-Tyrosine-Asparagine-Asparagine [NTX 30-39]”, the immunogenicity entry in data set [1] is recorded as “immunogenic”. The “change in the potassium currents” value in data set [2] was “no change”.

Consider “Noxiustoxin (TIINVKCTSPKQCSKPCKELYGSSAGAKCMNGKCKCYNN; UniProt P08815 1-39, looked up) [Native NTX]”, for which the “effect on GABA (neurotransmitter) release” value in data set [3] is recorded as “increases neurotransmitter release”. In data set [4] (dose of 40 g per 20 grams of mouse body weight), the “intoxication symptoms and outcome” value was “generally produces death”. Further, the lethality test outcome in data set [4], in data set [4] (ip) and in data set [4] (sc) was “Toxic” in each case.

With “TIINVKCTS [NTX 1-9, Threonine-Isoleucine-Isoleucine-Asparagine-Valine-Lysine-Cysteine-Threonine-Serine]”, the time to death in data set [4] (dose 100 g (so in the source), intraventricularly) was at most 20 h. In data set [4] (setting [6]), this substance showed a time to convulsions of at most 12 min and a time to death below 0.333 h.

On to “Threonine-Isoleucine-Isoleucine-Asparagine-Valine-Lysine-Cysteine-Threonine-Serine-Proline-Lysine-Glutamine-Cysteine-Serine-Lysine-Proline-Cysteine-Lysine-Glutamic Acid-Leucine [NTX 1-20]”, for which the “effect on GABA (neurotransmitter) release” value in data set [3] is on record as “increases neurotransmitter release”.

For “Threonine-Isoleucine-Isoleucine-Asparagine-Valine-Lysine-Cysteine-Threonine-Serine-Proline-Lysine-Glutamine-Cysteine-Serine-Lysine-Proline-Cysteine-Lysine-Glutamic Acid-Leucine-Tyrosine-Glycine-Serine-Serine-Alanine-Glycine-Alanine-Lysine-Cysteine-Methionine-Asparagine-Glycine-Lysine-Cysteine-Lysine-Cysteine-Tyrosine-Asparagine-Asparagine [NTX 1-39]”, the “blockade of potassium permeability / potassium channels” value in data set [3] (excitable membranes such as brain synaptosomes) is recorded as “blocks potassium permeability”. Further, the immunogenicity result in data set [1] was “immunogenic”. In addition, the “survival of immunized population” value in data set [5] was “more than 75%”.

Take “Tyrosine-Glycine-Serine-Serine-Alanine-Glycine-Alanine-Lysine-Cysteine-Methionine-Asparagine-Glycine-Lysine-Cysteine-Lysine-Cysteine-Tyrosine-Asparagine-Asparagine [NTX 21-39]”: the immunogenicity entry in data set [1] is “immunogenic”.
